The source of these data is PMC12128149, “Molecular Hybrids of Quinoline and Sulfonamide: Design, Synthesis and in Vitro Anticancer Studies” (ChemistryOpen, 2024).

Counter-ions that a name gives are not always drawn.

Type in all cases: cell-based
The subject of one series is A549. The experiment in a line: MTS cytotoxicity testing, A549 cells. Particulars: Homo sapiens, ITK/BTK null cells. The procedure: (§1) Cell lines: The cells were sourced from either the DSMZ (Braunschweig, Germany) or the ATCC (Middlesex, UK). They were maintained in the recommended growth medium, supplemented with 10 % fetal calf serum, antibiotics (100 U/mL penicillin and […]), 2 mM glutamine, 1 mM NaHCO3, 1 mM sodium pyruvate, and 20 mM HEPES. The cells were incubated at 37 °C in a humidified atmosphere with 5 % CO2. Cell lines were routinely verified and checked for mycoplasma contamination every two weeks to once a month.
(§2) MTS cytotoxicity testing: An MTS assay method was developed in our laboratory for routine drug screening. This technique was used to assess the cytotoxicity of compounds, and the IC50 values were determined as previously described.[27]
(Formazan colour is commonly taken as a measure of viable cells.)

A further series has as its system HCT116. The experiment in a line: MTS cytotoxicity testing, HCT116 cells. As to conditions: Homo sapiens, HCT-116; ITK/BTK null cells. The procedure: as §1, §2
The subject of the next series is U2OS. Description: MTS cytotoxicity testing, U2OS cells. Particulars: Homo sapiens, ITK/BTK null cells. The procedure:
as §1, §2

The test system of another series is Jurkat. Description: MTS cytotoxicity testing, Jurkat cells. As to conditions: Homo sapiens, ITK high cells. The procedure: as §1, §2
The next series has as its system CCRF‐CEM. Description: MTS cytotoxicity testing, CCRF‐CEM cells. Particulars: Homo sapiens, ITK high cells. The procedure:
as §1, §2

The next series deals with MOLT‐4. The experiment in a line: MTS cytotoxicity testing, MOLT‐4 cells. Particulars: Homo sapiens, ITK high cells. The procedure:
as §1, §2

For another series, the system named is RAMOS. Description: MTS cytotoxicity testing, RAMOS cells. Particulars: Homo sapiens, BTK high cells. The procedure:
as §1, §2

The test system of a further series is K562. Description: MTS cytotoxicity testing, K562 cells. As to conditions: Homo sapiens, BTK high cells. The procedure: as §1, §2
Series [1] can be described thus: MTS cytotoxicity testing, MRC‐5 non‐cancer cells. Particulars: human. The procedure: as §1, §2
Series [2] in a line: MTS cytotoxicity testing, BJ non‐cancer cells. As to conditions: human. The procedure:
as §1, §2

As for `O=S(=O)(c1cc(-c2cccc(OC(F)(F)F)c2)cc2cccnc12)N1CCCCC1` [9l, 8‐(piperidin‐1‐ylsulfonyl)‐6‐(3‐(trifluoromethoxy)phenyl)quinolone], the IC50 (usually the concentration at which inhibition is half-maximal) was above 50 µM in the series with A549; above 50 µM with HCT116; above 50 µM in the series on U2OS; 12.1 ± 6.43 µM in the series on Jurkat; above 50 µM in the series on CCRF‐CEM; above 50 µM in the series on MOLT‐4. Moreover, the IC50 (in the series with RAMOS; in the series with K562; in series [1]; in series [2]) was above 50 µM in each case.
In the case of `O=S(=O)(c1cc(-c2cccc(Cl)c2)cc2cccnc12)N1CCCCC1` [9b, 6‐(3‐chlorophenyl)‐8‐(piperidin‐1‐ylsulfonyl)quinoline], the IC50 with A549, with HCT116, with U2OS, in the series on Jurkat, in the series on CCRF‐CEM and in the series with MOLT‐4 was above 50 µM in each case. Also, the IC50 (in the series on RAMOS; in the series on K562; in series [1]; in series [2]) was above 50 µM throughout.
As to `O=S(=O)(c1cc(-c2cc(Cl)c(O)c(Cl)c2)cc2cccnc12)N1CCCCC1` [9g, 2,6‐dichloro‐4‐(8‐(piperidin‐1‐ylsulfonyl)quinolin‐6‐yl)phenol], the IC50 with A549, in the series with HCT116, in the series with U2OS, with Jurkat, in the series with CCRF‐CEM and with MOLT‐4 was above 50 µM throughout. Besides, the IC50 (in the series on RAMOS; in the series with K562; in series [1]; in series [2]) was above 50 µM throughout.
In the case of `O=S(=O)(c1cc(-c2ccccc2)cc2cccnc12)N1CCCCC1` [9a, 6‐phenyl‐8‐(piperidin‐1‐ylsulfonyl)quinoline], the IC50 in the series on A549, with HCT116, in the series on U2OS, with Jurkat, with CCRF‐CEM and in the series on MOLT‐4 was above 50 µM throughout. The IC50 (with RAMOS; with K562; in [1]; in [2]) was above 50 µM throughout.
On to `O=S(=O)(c1cc(-c2ccc(O)cc2)cc2cccnc12)N1CCCCC1` [9e, 4‐(8‐(piperidin‐1‐ylsulfonyl)quinolin‐6‐yl)phenol], for which the IC50 with A549 is above 50 µM; with HCT116 it was above 50 µM; in the series with U2OS, above 50 µM; in the series with Jurkat it was 7.43 ± 7.4 µM; with CCRF‐CEM, 28.6 ± 7.64 µM; with MOLT‐4, above 50 µM. Further, the IC50 was 5.47 ± 1.71 µM in the series on RAMOS, 5.47 ± 1.71 µM in the series with K562, above 50 µM in [1] and above 50 µM in series [2].
On to `N#Cc1cccc(-c2cc(S(=O)(=O)N3CCCCC3)c3ncccc3c2)c1` [9k, 3‐(8‐(piperidin‐1‐ylsulfonyl)quinolin‐6‐yl)benzonitrile], for which the IC50 in the series with A549, with HCT116, in the series with U2OS, in the series with Jurkat, in the series on CCRF‐CEM and in the series on MOLT‐4 was above 50 µM throughout. Moreover, the 50% inhibitory concentration (IC50) (in the series with RAMOS; in the series on K562; in [1]; in series [2]) was above 50 µM throughout.
For `O=S(=O)(c1cc(-c2ccccc2Br)cc2cccnc12)N1CCCCC1` [9d, 6‐(2‐bromophenyl)‐8‐(piperidin‐1‐ylsulfonyl)quinoline], the IC50 in the series with A549 was above 50 µM; with HCT116, above 50 µM; in the series on U2OS it was above 50 µM; with Jurkat it was 13.5 ± 6.25 µM; with CCRF‐CEM, above 50 µM; with MOLT‐4 it was above 50 µM. The IC50 in the series on RAMOS is 12.7 ± 3.71 µM; with K562, above 50 µM; in [1], above 50 µM; in [2], above 50 µM.
With `O=S(=O)(c1cc(-c2ccc3nc[nH]c3c2)cc2cccnc12)N1CCCCC1` [9p, 6‐(1H‐benzo[d]imidazol‐6‐yl)‐8‐(piperidin‐1‐ylsulfonyl)quinoline hydrochloride], the IC50 in the series with A549 is above 50 µM; in the series on HCT116 it was above 50 µM; in the series with U2OS, above 50 µM; with Jurkat it was 21.2 ± 3.49 µM; in the series with CCRF‐CEM, 13.2 ± 1.25 µM; in the series on MOLT‐4, above 50 µM. Further, the IC50 (in the series on RAMOS; in the series with K562; in series [1]; in series [2]) was above 50 µM each time.
With `COc1cc(-c2cc(S(=O)(=O)N3CCCCC3)c3ncccc3c2)cc(Cl)c1O` [9h, 2‐chloro‐6‐methoxy‐4‐(8‐(piperidin‐1‐ylsulfonyl)quinolin‐6‐yl)phenol], the IC50 in the series on A549, in the series on HCT116, in the series with U2OS, with Jurkat, with CCRF‐CEM and in the series with MOLT‐4 was above 50 µM in each case. Besides, the IC50 (in the series with RAMOS; in the series with K562; in series [1]; in series [2]) was above 50 µM each time.
With `O=S(=O)(c1cc(-c2ccccc2F)cc2cccnc12)N1CCCCC1` [9c, 6‐(2‐fluorophenyl)‐8‐(piperidin‐1‐ylsulfonyl)quinoline], the IC50 in the series with A549 was above 50 µM; with HCT116, above 50 µM; in the series with U2OS, above 50 µM; in the series on Jurkat it was 12.7 ± 5.45 µM; in the series on CCRF‐CEM it was above 50 µM; in the series with MOLT‐4, above 50 µM. In addition, the IC50 (in the series with RAMOS; in the series with K562; in [1]; in series [2]) was above 50 µM in each case.
For `COc1cc(-c2cc(S(=O)(=O)N3CCCCC3)c3ncccc3c2)ccn1` [9o, 6‐(2‐methoxypyridin‐4‐yl)‐8‐(piperidin‐1‐ylsulfonyl)quinoline], the IC50 in the series with A549 was above 50 µM; with HCT116, above 50 µM; in the series with U2OS, above 50 µM; in the series on Jurkat, 11.4 ± 3.49 µM; in the series with CCRF‐CEM, 15.3 ± 2.25 µM; in the series with MOLT‐4, above 50 µM. Besides, the IC50 in the series with RAMOS is 6.76 ± 0.79 µM; in the series with K562 it was above 50 µM; in series [1], above 50 µM; in series [2], above 50 µM.
On to `Nc1cccc(-c2cc(S(=O)(=O)N3CCCCC3)c3ncccc3c2)c1` [9j, 3‐(8‐(piperidin‐1‐ylsulfonyl)quinolin‐6‐yl)aniline hydrochloride], for which the IC50 was above 50 µM with A549; above 50 µM in the series on HCT116; above 50 µM in the series with U2OS; above 50 µM in the series on Jurkat; above 50 µM in the series with CCRF‐CEM; 5.57 ± 7.56 µM in the series on MOLT‐4. Moreover, the IC50 (in the series on RAMOS; in the series with K562; in series [1]; in series [2]) was above 50 µM throughout.
For `COc1cccc(-c2cc(S(=O)(=O)N3CCCCC3)c3ncccc3c2)c1` [9i, 6‐(3‐methoxyphenyl)‐8‐(piperidin‐1‐ylsulfonyl)quinoline], the IC50 in the series with A549 is above 50 µM; in the series on HCT116 it was above 50 µM; in the series with U2OS, above 50 µM; in the series on Jurkat, 8.43 ± 6.43 µM; in the series on CCRF‐CEM it was 38.6 ± 4.64 µM; in the series with MOLT‐4, above 50 µM. In addition, the IC50 (in the series on RAMOS; in the series on K562; in [1]; in series [2]) was above 50 µM throughout.
Consider `O=S(=O)(c1cc(-c2ccc(O)c(F)c2)cc2cccnc12)N1CCCCC1` [9f, 2‐fluoro‐4‐(8‐(piperidin‐1‐ylsulfonyl)quinolin‐6‐yl)phenol], for which the IC50 with A549 was above 50 µM; in the series with HCT116, above 50 µM; in the series with U2OS, above 50 µM; in the series with Jurkat it was 13 ± 6.43 µM; with CCRF‐CEM it was 17.1 ± 4.64 µM; in the series on MOLT‐4, above 50 µM. The half-maximal inhibitory concentration (IC50) in the series with RAMOS was 9.69 ± 2.41 µM; with K562, 9.69 ± 2.41 µM; in [1] it was above 50 µM; in series [2] it was above 50 µM.
Consider `O=S(=O)(c1cc(-c2ccc(C(F)(F)F)cc2)cc2cccnc12)N1CCCCC1` [9m, 8‐(piperidin‐1‐ylsulfonyl)‐6‐(4‐(trifluoromethyl)phenyl)quinoline], for which the IC50 was above 50 µM with A549; above 50 µM in the series on HCT116; above 50 µM in the series with U2OS; 11.3 ± 1.13 µM with Jurkat; above 50 µM in the series with CCRF‐CEM; above 50 µM with MOLT‐4. Besides, the IC50 in the series on RAMOS was 8.11 ± 1.29 µM; in the series with K562, above 50 µM; in [1], above 50 µM; in [2], above 50 µM.
For the compound `O=S(=O)(c1cc(-c2ccnc(F)c2)cc2cccnc12)N1CCCCC1` [9n, 6‐(2‐fluoropyridin‐4‐yl)‐8‐(piperidin‐1‐ylsulfonyl)quinoline], the IC50 in the series on A549 was above 50 µM; with HCT116, above 50 µM; in the series with U2OS, above 50 µM; in the series on Jurkat, above 50 µM; in the series on CCRF‐CEM, 19.4 ± 0.78 µM; with MOLT‐4, above 50 µM. Also, the 50% inhibitory concentration (IC50) in the series with RAMOS was 2.76 ± 0.79 µM; in the series with K562 it was above 50 µM; in series [1], above 50 µM; in series [2], above 50 µM.
